Experimental data reported in patent US20240315991A1, “USES OF HNF4 ALPHA AGONISTS” (Sanford Burnham Prebys Medical Discovery Institute, priority 2023, published 2024).

Experiments:
citrate synthase = assay: Citrate synthase activity in liver homogenate; format: in vivo, mouse; conditions: HFD+NCT vs HFD, FIGS. 3A-3C
Method: (§1) NCT oral administration. Four-week-old male C57BL/6J (JAX cat #000664) mice were purchased from Jackson laboratory and were maintained in a 12 h light/dark cycle throughout the experiment. Prior to the experiments, mice were acclimated for 2 weeks. Six-week-old mice with similar body weights were randomized to a normal diet (NC), a high fat diet (HFD) (Research Diets, cat #D12492 60 kcal % fat) or HFD containing 4000 ppm NCT (HFD+NCT) (Research Diets, 60 kcal % fat+4000 ppm NCT), which was calculated to provide approximately 400 mg/kg/d NCT. HFD chow containing NCT was made with gray dye to distinguish it from regular HFD chow that had green dye. Mice for each treatment group were placed in separate cages. Equal amounts of fresh chow were provided every week to all mice. Body weight gain and food intake were measured every week for 10 weeks. After 10 weeks of chow treatment, mice were sacrificed for analysis. All animal experiments were approved by the Institutional Animal Care and Use Committee (IACUC) of the Sanford Burnham Prebys Medical Discovery Institute in accordance with national regulations. […]
Citrate synthase activity. Citrate synthase activity in liver homogenate was measured according to manufacturer's instructions using a calorimetry based MitoCheck Citrate Synthase Activity Assay Kit (Cat #701040, Cayman Chemicals, USA).

hepatic cytochrome C = assay: Western blotting of liver, cytochrome C; format: in vivo, mouse; conditions: HFD+NCT vs HFD, FIGS. 3D-3F
Method: NCT oral administration. Four-week-old male C57BL/6J (JAX cat #000664) mice were purchased from Jackson laboratory and were maintained in a 12 h light/dark cycle throughout the experiment. Prior to the experiments, mice were acclimated for 2 weeks. Six-week-old mice with similar body weights were randomized to a normal diet (NC), a high fat diet (HFD) (Research Diets, cat #D12492 60 kcal % fat) or HFD containing 4000 ppm NCT (HFD+NCT) (Research Diets, 60 kcal % fat+4000 ppm NCT), which was calculated to provide approximately 400 mg/kg/d NCT. HFD chow containing NCT was made with gray dye to distinguish it from regular HFD chow that had green dye. Mice for each treatment group were placed in separate cages. Equal amounts of fresh chow were provided every week to all mice. Body weight gain and food intake were measured every week for 10 weeks. After 10 weeks of chow treatment, mice were sacrificed for analysis. All animal experiments were approved by the Institutional Animal Care and Use Committee (IACUC) of the Sanford Burnham Prebys Medical Discovery Institute in accordance with national regulations. Sample size was chosen based on the prior study of NCT delivered by IP injection.
Western blotting. Mouse liver extracts were prepared by incubation in RIPA buffer (Invitrogen) containing protease inhibitors (Calbiochem, SanDiego, CA). Protein was quantified by BCA assay (Thermo Scientific). […]

HSP60 mRNA = assay: RT-PCR of mouse liver, HSP60; format: in vivo; conditions: HFD+NCT vs HFD, FIG. 3M
Method: as §1, with “analysis.” for “analysis. All animal experiments were approved by the Institutional Animal Care and Use Committee (IACUC) of the Sanford Burnham Prebys Medical Discovery Institute in accordance with national regulations.”
(§2) RT-PCR. […] Quantitative real time PCR (RT-PCR) analysis was performed using SYBR® Select Master Mix (Applied Biosystems) and an ABI 7900HT thermal cycler (Applied Biosystems, Thermo Fisher Scientific). Ct values were normalized to 18s rRNA and are expressed as fold change over samples from mice fed NC or cultured human hepatocytes without NCT.

SDHA mRNA = assay: RT-PCR of primary human hepatocytes, SDHA; format: cell-based; conditions: HEP-fat media, NCT 5, 15, and 40 μM, FIGS. 3I and 3J
Method: (§3) Primary human hepatocytes. Experiments with primary human hepatocytes were performed by CN-Bio (Cambridge, UK). Briefly, primary human hepatocytes (PHHs), human Kupffer cells (HKs) and human stellate cells (HSCs) were seeded onto CN-Bio's PhysioMimix LC12 MPS culture plates at 6×10^5 cells for PHHs and 6×10^4 cells for HKs and HSCs in 1.6 ml of CN-Bio's HEP-lean media with 5% FCS. Throughout the experiment the cells were maintained at a flow rate of 1 μl/s. After 24 hours (Day 1) of seeding, the media was changed to HEP-lean media and the cells were incubated until day 4 to allow the cells to form microtissues. At day 4 post seeding, media was changed to HEP-fat media and treated with DMSO or NCT (5, 15, and 40 μM). Media was replaced on days 6 and 8. Cells were harvested on day 10 for RNA extraction and culture media was collected for ELISA analysis.
as §2

PPARGC1A mRNA = assay: RT-PCR of primary human hepatocytes, PPARGC1A; format: cell-based; conditions: HEP-fat media, NCT 5, 15, and 40 μM, FIG. 4F
Method: as §3, §2

IL-6 protein = assay: ELISA of culture media of primary human hepatocytes, IL-6; format: cell-based; conditions: HEP-fat media, NCT 5, 15, and 40 μM, FIG. 5D
Method: as §3

cytochrome C mRNA = assay: RT-PCR of primary human hepatocytes, cytochrome C; format: cell-based; conditions: 0 μM vs. each concentration of NCT, FIG. 3I
Method: as §3, §2

HNF4α = target: T1, HNF4α (Homo sapiens, UniProt P41235); conditions: cited from earlier work
T1 sequence (P41235 1-474): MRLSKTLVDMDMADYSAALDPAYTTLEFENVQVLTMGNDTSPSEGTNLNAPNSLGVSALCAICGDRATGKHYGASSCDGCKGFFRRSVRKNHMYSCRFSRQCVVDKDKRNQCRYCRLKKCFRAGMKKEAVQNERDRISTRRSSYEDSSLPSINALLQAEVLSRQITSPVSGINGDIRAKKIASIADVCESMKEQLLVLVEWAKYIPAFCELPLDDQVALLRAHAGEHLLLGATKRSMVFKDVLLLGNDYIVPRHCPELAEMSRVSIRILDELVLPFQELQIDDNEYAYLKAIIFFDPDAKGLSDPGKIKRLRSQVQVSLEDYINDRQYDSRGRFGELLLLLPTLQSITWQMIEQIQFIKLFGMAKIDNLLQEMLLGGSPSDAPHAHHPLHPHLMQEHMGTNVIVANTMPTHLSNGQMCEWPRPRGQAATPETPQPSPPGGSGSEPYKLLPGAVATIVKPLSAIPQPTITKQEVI

## O=C(/C=C/c1ccc(O)c(O)c1)NCCc1ccc(O)cc1 [NCT, N-trans caffeoyltyramine]
Citrate synthase
  citrate synthase level in liver: reverse the depression
Hepatic cytochrome C
  hepatic cytochrome C protein level: reverse the depression
HSP60 mRNA
  HSP60 mRNA level in liver: reverse the induction
SDHA mRNA
  SDHA mRNA in human hepatocytes: increase
PPARGC1A mRNA
  PPARGC1A(PGC1a) mRNA in primary human hepatocytes: increase
IL-6 protein
  IL-6 protein level secreted by cultured human hepatocytes: decrease
Cytochrome C mRNA
  cytochrome C mRNA levels in primary human hepatocytes: non-significant
HNF4α; HNF4α siRNA ablates their effect
  specificity for HNF4α: exhibit specificity for HNF4α
HNF4α
  activation of HNF4α, potency compared with Alverine and Benfluorex: much more potent activators
